Tests used:
Test in all cases: relative viability (nuclei count vs DMSO), 5 days (fraction); higher = more cells survive
[1] = test system: BEN
In short: (§1)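 Relative viability is defined as nuclei in treated wells over nuclei in vehicle wells. Duplicate plates were run and medians reported. Lung cancer cell lines in 1536-well plates were dosed by pin tool one day after seeding, with one drug or with a fixed anchor-drug dose plus five library-drug doses (not always all listed) in √10 steps, and nuclei were counted after 5 days.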

[2] = test system: ChaGo-K-1
In short: as §1

[3] = test system: HCC-15
In short: as §1

[4] = test system: HCC-78
In short: as §1

[5] = test system: LC-2-ad
In short: as §1

[6] = test system: LCLC-97TM1
In short: as §1

[7] = test system: LK-2
In short: as §1

[8] = test system: LU99A
In short: as §1

[9] = test system: LXF-289
In short: as §1

[10] = test system: NCI-H1651
In short: as §1

[11] = test system: NCI-H1666
In short: as §1

[12] = test system: NCI-H1944
In short: as §1

[13] = test system: NCI-H2087
In short: as §1

[14] = test system: NCI-H2342
In short: as §1

[15] = test system: NCI-H322M
In short: as §1

[16] = test system: NCI-H358
In short: as §1

[17] = test system: NCI-H650
In short: as §1

[18] = test system: NCI-H661
In short: as §1

[19] = test system: NCI-H838
In short: as §1

[20] = test system: PC-3 [JPC-3]
In short: as §1

[21] = test system: SK-MES-1
In short: as §1

[22] = test system: UMC-11
In short: as §1

[23] = test system: NCI-H596
In short: as §1

## O=C(O)c1ccc(-c2c[nH]c3ncc(-c4ccccc4)cc23)cc1C1CCCC1 + CC(=O)c1c(C)c2cnc(Nc3ccc(N4CCNCC4)cn3)nc2n(C2CCCC2)c1=O [Palbociclib] (partner 0.5 µM)
[1]; first compound 0.04 µM
  relative viability: 0.459
[1]; first compound 0.1265 µM
  relative viability: 0.422
[1]; first compound 0.4 µM
  relative viability: 0.455
[1]; first compound 1.265 µM
  relative viability: 0.454
[2]; first compound 0.04 µM
  relative viability: 0.958
[2]; first compound 0.1265 µM
  relative viability: 0.966
[2]; first compound 0.4 µM
  relative viability: 0.945
[2]; first compound 1.265 µM
  relative viability: 0.834
[3]; first compound 0.04 µM
  relative viability: 0.793
[3]; first compound 0.1265 µM
  relative viability: 0.762
[3]; first compound 0.4 µM
  relative viability: 0.631
[3]; first compound 1.265 µM
  relative viability: 0.431
[4]; first compound 0.04 µM
  relative viability: 0.494
[4]; first compound 0.1265 µM
  relative viability: 0.467
[4]; first compound 0.4 µM
  relative viability: 0.488
[4]; first compound 1.265 µM
  relative viability: 0.435
[5]; first compound 0.04 µM
  relative viability: 0.425
[5]; first compound 0.1265 µM
  relative viability: 0.541
[5]; first compound 0.4 µM
  relative viability: 0.489
[5]; first compound 1.265 µM
  relative viability: 0.42
[6]; first compound 0.04 µM
  relative viability: 0.267
[6]; first compound 0.1265 µM
  relative viability: 0.222
[6]; first compound 0.4 µM
  relative viability: 0.187
[6]; first compound 1.265 µM
  relative viability: 0.217
[7]; first compound 0.04 µM
  relative viability: 0.826
[7]; first compound 0.1265 µM
  relative viability: 0.768
[7]; first compound 0.4 µM
  relative viability: 0.771
[7]; first compound 1.265 µM
  relative viability: 0.646
[8]; first compound 0.04 µM
  relative viability: 0.43
[8]; first compound 0.1265 µM
  relative viability: 0.439
[8]; first compound 0.4 µM
  relative viability: 0.375
[8]; first compound 1.265 µM
  relative viability: 0.344
[9]; first compound 0.04 µM
  relative viability: 0.573
[9]; first compound 0.1265 µM
  relative viability: 0.584
[9]; first compound 0.4 µM
  relative viability: 0.57
[9]; first compound 1.265 µM
  relative viability: 0.521
[10]; first compound 0.04 µM
  relative viability: 0.534
[10]; first compound 0.1265 µM
  relative viability: 0.524
[10]; first compound 0.4 µM
  relative viability: 0.514
[10]; first compound 1.265 µM
  relative viability: 0.475
[11]; first compound 0.04 µM
  relative viability: 0.604
[11]; first compound 0.1265 µM
  relative viability: 0.622
[11]; first compound 0.4 µM
  relative viability: 0.609
[11]; first compound 1.265 µM
  relative viability: 0.547
[12]; first compound 0.04 µM
  relative viability: 0.349
[12]; first compound 0.1265 µM
  relative viability: 0.376
[12]; first compound 0.4 µM
  relative viability: 0.315
[12]; first compound 1.265 µM
  relative viability: 0.314
[13]; first compound 0.04 µM
  relative viability: 0.214
[13]; first compound 0.1265 µM
  relative viability: 0.267
[13]; first compound 0.4 µM
  relative viability: 0.214
[13]; first compound 1.265 µM
  relative viability: 0.248
[14]; first compound 0.04 µM
  relative viability: 0.465
[14]; first compound 0.1265 µM
  relative viability: 0.568
[14]; first compound 0.4 µM
  relative viability: 0.479
[14]; first compound 1.265 µM
  relative viability: 0.517
[15]; first compound 0.04 µM
  relative viability: 0.466
[15]; first compound 0.1265 µM
  relative viability: 0.461
[15]; first compound 0.4 µM
  relative viability: 0.448
[15]; first compound 1.265 µM
  relative viability: 0.461
[16]; first compound 0.04 µM
  relative viability: 0.128
[16]; first compound 0.1265 µM
  relative viability: 0.12
[16]; first compound 0.4 µM
  relative viability: 0.124
[16]; first compound 1.265 µM
  relative viability: 0.0876
[17]; first compound 0.04 µM
  relative viability: 0.32
[17]; first compound 0.1265 µM
  relative viability: 0.344
[17]; first compound 0.4 µM
  relative viability: 0.312
[17]; first compound 1.265 µM
  relative viability: 0.279
[18]; first compound 0.04 µM
  relative viability: 0.414
[18]; first compound 0.1265 µM
  relative viability: 0.411
[18]; first compound 0.4 µM
  relative viability: 0.406
[18]; first compound 1.265 µM
  relative viability: 0.389
[19]; first compound 0.04 µM
  relative viability: 0.189
[19]; first compound 0.1265 µM
  relative viability: 0.267
[19]; first compound 0.4 µM
  relative viability: 0.214
[19]; first compound 1.265 µM
  relative viability: 0.215
[20]; first compound 0.04 µM
  relative viability: 0.534
[20]; first compound 0.1265 µM
  relative viability: 0.553
[20]; first compound 0.4 µM
  relative viability: 0.538
[20]; first compound 1.265 µM
  relative viability: 0.499
[21]; first compound 0.04 µM
  relative viability: 0.335
[21]; first compound 0.1265 µM
  relative viability: 0.288
[21]; first compound 0.4 µM
  relative viability: 0.303
[21]; first compound 1.265 µM
  relative viability: 0.265
[22]; first compound 0.04 µM
  relative viability: 0.286
[22]; first compound 0.1265 µM
  relative viability: 0.312
[22]; first compound 0.4 µM
  relative viability: 0.333
[22]; first compound 1.265 µM
  relative viability: 0.332

## O=C(O)c1ccc(-c2c[nH]c3ncc(-c4ccccc4)cc23)cc1C1CCCC1 + COc1cc2c(Oc3ccc(NC(=O)C4(C(=O)Nc5ccc(F)cc5)CC4)cc3F)ccnc2cc1OCCCN1CCOCC1 [Foretinib] (partner 0.25 µM)
[1]; first compound 0.04 µM
  relative viability: 0.586
[1]; first compound 0.1265 µM
  relative viability: 0.854
[1]; first compound 0.4 µM
  relative viability: 0.937
[1]; first compound 1.265 µM
  relative viability: 0.765
[2]; first compound 0.04 µM
  relative viability: 0.995
[2]; first compound 0.1265 µM
  relative viability: 0.928
[2]; first compound 0.4 µM
  relative viability: 0.833
[2]; first compound 1.265 µM
  relative viability: 0.863
[3]; first compound 0.04 µM
  relative viability: 1.11
[3]; first compound 0.1265 µM
  relative viability: 1.04
[3]; first compound 0.4 µM
  relative viability: 0.92
[3]; first compound 1.265 µM
  relative viability: 0.678
[4]; first compound 0.1265 µM
  relative viability: 0.584
[4]; first compound 0.4 µM
  relative viability: 0.524
[4]; first compound 1.265 µM
  relative viability: 0.531
[5]; first compound 0.04 µM
  relative viability: 0.973
[5]; first compound 0.1265 µM
  relative viability: 0.935
[5]; first compound 0.4 µM
  relative viability: 0.798
[5]; first compound 1.265 µM
  relative viability: 0.702
[6]; first compound 0.04 µM
  relative viability: 0.911
[6]; first compound 0.1265 µM
  relative viability: 1.03
[6]; first compound 0.4 µM
  relative viability: 0.892
[6]; first compound 1.265 µM
  relative viability: 0.525
[7]; first compound 0.04 µM
  relative viability: 1.33
[7]; first compound 0.1265 µM
  relative viability: 1.14
[7]; first compound 0.4 µM
  relative viability: 1.13
[7]; first compound 1.265 µM
  relative viability: 0.969
[8]; first compound 0.04 µM
  relative viability: 0.803
[8]; first compound 0.1265 µM
  relative viability: 0.783
[8]; first compound 0.4 µM
  relative viability: 0.729
[8]; first compound 1.265 µM
  relative viability: 0.677
[9]; first compound 0.04 µM
  relative viability: 0.972
[9]; first compound 0.1265 µM
  relative viability: 0.939
[9]; first compound 0.4 µM
  relative viability: 0.867
[9]; first compound 1.265 µM
  relative viability: 0.543
[10]; first compound 0.04 µM
  relative viability: 0.786
[10]; first compound 0.1265 µM
  relative viability: 0.806
[10]; first compound 0.4 µM
  relative viability: 0.792
[10]; first compound 1.265 µM
  relative viability: 0.607
[11]; first compound 0.04 µM
  relative viability: 0.961
[11]; first compound 0.1265 µM
  relative viability: 0.959
[11]; first compound 0.4 µM
  relative viability: 0.921
[11]; first compound 1.265 µM
  relative viability: 0.441
[12]; first compound 0.04 µM
  relative viability: 0.923
[12]; first compound 0.1265 µM
  relative viability: 0.988
[12]; first compound 0.4 µM
  relative viability: 0.911
[12]; first compound 1.265 µM
  relative viability: 0.807
[13]; first compound 0.04 µM
  relative viability: 0.933
[13]; first compound 0.1265 µM
  relative viability: 1.16
[13]; first compound 0.4 µM
  relative viability: 1.06
[13]; first compound 1.265 µM
  relative viability: 0.901
[14]; first compound 0.04 µM
  relative viability: 1.03
[14]; first compound 0.1265 µM
  relative viability: 1.11
[14]; first compound 0.4 µM
  relative viability: 1.18
[14]; first compound 1.265 µM
  relative viability: 0.991
[15]; first compound 0.04 µM
  relative viability: 1.02
[15]; first compound 0.1265 µM
  relative viability: 1.03
[15]; first compound 0.4 µM
  relative viability: 0.993
[15]; first compound 1.265 µM
  relative viability: 0.824
[16]; first compound 0.04 µM
  relative viability: 0.768
[16]; first compound 0.1265 µM
  relative viability: 0.949
[16]; first compound 0.4 µM
  relative viability: 0.619
[16]; first compound 1.265 µM
  relative viability: 0.397
[23]; first compound 0.04 µM
  relative viability: 0.783
[23]; first compound 0.1265 µM
  relative viability: 0.79
[23]; first compound 0.4 µM
  relative viability: 0.919
[23]; first compound 1.265 µM
  relative viability: 0.999
[17]; first compound 0.04 µM
  relative viability: 1.13
[17]; first compound 0.1265 µM
  relative viability: 1.11
[17]; first compound 0.4 µM
  relative viability: 0.888
[17]; first compound 1.265 µM
  relative viability: 0.71
[18]; first compound 0.04 µM
  relative viability: 1
[18]; first compound 0.4 µM
  relative viability: 0.971
[18]; first compound 1.265 µM
  relative viability: 0.977
[19]; first compound 0.04 µM
  relative viability: 1.02
[19]; first compound 0.1265 µM
  relative viability: 1.17
[19]; first compound 0.4 µM
  relative viability: 1.05
[19]; first compound 1.265 µM
  relative viability: 0.923
[20]; first compound 0.04 µM
  relative viability: 1
[20]; first compound 0.1265 µM
  relative viability: 1.14
[20]; first compound 0.4 µM
  relative viability: 0.978
[20]; first compound 1.265 µM
  relative viability: 0.61
[21]; first compound 0.04 µM
  relative viability: 0.963
[21]; first compound 0.1265 µM
  relative viability: 1.01
[21]; first compound 0.4 µM
  relative viability: 0.918
[21]; first compound 1.265 µM
  relative viability: 0.794
[22]; first compound 0.04 µM
  relative viability: 1.01
[22]; first compound 0.1265 µM
  relative viability: 1.02
[22]; first compound 0.4 µM
  relative viability: 0.982
[22]; first compound 1.265 µM
  relative viability: 0.77

From the supplement of paper PMC10307832
